{
  "source": "patent US20150051210A1",
  "about": "“Tyrosine Kinase Inhibitor Combinations and their Use” (Novartis AG, priority 2012, published 2015)",
  "type_in_all_cases": "cell-based",
  "key": {"[1]": {"tested_on": "phosphorylation of MET, ERK1/2, AKT, FRS2 in MKN-45", "test": "Western blots of protein phosphorylation in MKN-45 cells", "description": "(§1) Western Blots (Figures not Shown) MKN-45 and RT-112 cells were treated in 6-well plates for 2 hours and 18 hours in the presence or absence of purified protein (rhFGF7, rhNRG1-31, or rhHGF), and/or inhibitor (Cpd. B, Cpd. A, BGJ398). Following wash with ice-cold PBS, cells were lysed with RIPA buffer (Thermo) containing phosphatase (Thermo) and proteinase (Roche) inhibitor cocktails. Total protein was quantified by bicinchoninic protein assay (Pierce). Aliquots of 20 μg were resolved by electrophoresis on NuPAGE SDS-PAGE 4-12% BIS-Tris gels before transfer to nitrocellulose membranes. Membranes were blocked for one hour at room temperature before overnight incubation at 4° C. with the following primary antibodies (source rabbit, 1:1000 final dilution): anti-phospho-Akt (Ser473), anti-phospho-MET (Tyr1234/1235), anti-phospho-MAPK/ERK(1/2) (Thr202/Tyr204), anti-AKT, anti-MAPK/Erk(1/2), and anti-α/β-Tubulin . Anti-MET was probed at 1:800 final dilution An internal antibody was used for phospho-FRS2(Y346) (1:1500 dilution). Membranes were then washed 3 times in PBS+0.1% Tween before addition of secondary antibody, IRDye 680LT goat anti-rabbit IgG , dilution 1:15000. After one hour at room temperature, membranes were washed and bands were visualized using an Odyssey Infrared Imager."}, "[2]": {"tested_on": "phosphorylation of MET, FRS2, ERK, AKT in RT-112", "test": "Western blots of protein phosphorylation in RT-112 cells", "description": "as §1"}, "RT-112 cells": {"tested_on": "RT-112 cells", "test": "RT-112 Dual Inhibition: reversal of rescue with selective inhibitors, CellTiter-Glo cell viability", "conditions": "for activity on cell viability (reversal of rescue): RT-112, rhHGF or rhNRG-1 250 ng/ml, 96 h, BGJ398 100 nM, Cpd. A/Cpd. B 500 nM, Lapatinib 1.5 μM, FIG. 5, FIG. 6", "description": "RT-112 Secretome screen: The basic format was identical to the MKN-45 secretome screen with slight modifications. RT-112 cells were plated in EMEM+10% in white, tissue-culture treated 384-well plates at 1000 cells/20 μl/well and allowed to attach overnight. Supernatant from library-transfected HEK293T/17 cells was transferred as described above for the MKN-45 secretome screen. Purified proteins rhNRG1-31 and rhTGFα were added as positive controls, at a final concentration of 150 ng/ml. Following addition of supernatants and purified protein controls, BGJ398 diluted in DMEM was added at 10 μl/well for a final assay concentration of 100 nM. Cell viability was measured after 72 hours using CellTiter-Glo as described above. (FIG. 2)\nRT-112 Dual Inhibition: The format for the RT-112 dual inhibition experiment was similar to that described for MKN-45 with the following modifications. RT-112 cells were plated at 1000 cells/20 μl/well. Solutions of rhHGF and rhNRG-1 were added to achieve a final concentration of 250 ng/ml. Single and dual inhibition conditions were prepared as follows: BGJ398, Cpd. A, Cpd. B, Lapatinib, BGJ398 and Cpd. A, BGJ398 and Cpd. B, BGJ398 and Lapatinib. Final concentrations for each compound, whether single or combined, were as follows: 100nM for BGJ398, 500 nM for Cpd. A and Cpd. B, and 1.5 μM for Lapatinib. After 96 hours cell viability was measured by CellTiter-Glo as previously described. (FIG. 5, FIG. 6)."}, "MKN-45 cells": {"tested_on": "MKN-45 cells", "test": "MKN-45 Dual Inhibition: reversal of rescue with selective inhibitors, CellTiter-Glo cell viability", "conditions": "for activity on cell viability (reversal of rescue): MET-dependent MKN-45, rhFGF7 or rhNRG-1 250 ng/ml, 96 h, Cpd. A/Cpd. B 100 nM, BGJ398 500 nM, Lapatinib 1.5 μM, FIG. 3, FIG. 4", "description": "MKN-45 Secretome screen: MKN-45 cells were plated in white, tissue-culture treated 384-well plates (Greiner) at 3000 cells/20 μl DMEM +10% FBS/well and allowed to attach overnight. Supernatant from library-transfected HEK293T/17 cells was then transferred to the MKN-45 cells at 30 μl/well using a Biomek FX liquid handler (Beckman Coulter) with pipetting speeds reduced to minimize disturbance of the HEK293T/17 monolayer. As positive controls, the purified proteins rhEGF and rhNRG1-31 (R&D Systems) were added to isolated wells on each plate for a final concentration of 150 ng/ml; supernatant from mock-transfected HEK293T/17 wells were transferred as neutral controls. Following addition of supernatants and purified protein controls, Cpd. A diluted in DMEM was added at 10 μl/well for a final assay concentration of 100 nM. After 96 hours incubation, growth was measured using the CellTiter-Glo luminescent cell viability assay system (Promega). In brief, 30 μl CellTiter-Glo reagent was added to all wells, then incubated for 15 minutes at room temperature before reading luminescence on a Viewlux plate reader (Perkin Elmer). (FIG. 1)\nMKN-45 Dual Inhibition: MKN-45 cells were seeded at 3000 cells/20 μl/well in 384-well plates and incubated overnight. Solutions of rhFGF7 and rhNRG-1 were prepared in DMEM+10%FBS, then added at 30 μl/well to achieve a final concentration of 250 ng/ml (one purified protein per treatment). The following single and dual inhibition treatments were prepared in DMEM and added at […]: Cpd. A, Cpd. B, BGJ398, Lapatinib, Cpd. A and BGJ398, Cpd. B and BGJ398, Cpd. A and Lapatinib, Cpd. B and Lapatinib. Final concentrations for each compound, whether single or combined, were as follows: 100 nM for Cpd. A and Cpd. B, 500 nM for BGJ398 and 1.5 μM for Lapatinib. After 96 hours cell viability was measured by CellTiter-Glo as previously described. (FIG. 3, FIG. 4)"}},
  "data": [
    {"molecule": "C/C(=N\\NC(N)=O)c1ccc2ncc(Cc3cc4cccnc4cc3F)n2n1", "note": "[Cpd. A, (E)-2-(1-(3-((7-fluoroquinolin-6-yl)methyl)imidazo[1,2-b]pyridazin-6-yl)ethylidene)hydrazinecarboxamide]", "values": [
      {"measurement": "effect on phosphorylation of several proteins (MET, ERK1/2, AKT, FRS2)", "setting": "[1]; MKN-45, absence of added ligands", "value": "profound effect"},
      {"measurement": "prevention of HGF rescue of ERK phosphorylation", "setting": "[2]; RT-112, BGJ398 plus HGF, simultaneous addition", "value": "prevented this rescue effect"},
      {"measurement": "MET phosphorylation", "setting": "[2]; RT-112, absence of ligands", "value": "specifically inhibited MET phosphorylation"},
      {"measurement": "activity on cell viability (reversal of rescue)", "setting": "RT-112 cells", "value": "not sufficient"},
      {"measurement": "activity on cell viability (reversal of rescue)", "setting": "MKN-45 cells", "value": "active"}
    ]},
    {"molecule": "CS(=O)(=O)CCNCc1ccc(-c2ccc3ncnc(Nc4ccc(OCc5cccc(F)c5)c(Cl)c4)c3c2)o1", "note": "[lapatinib, reference compound]", "values": [
      {"measurement": "reversal of FGF7 rescue effect on FRS2 and ERK1/2 phosphorylation", "setting": "[1]; MKN-45, MET inhibitor plus FGF7", "value": "not"},
      {"measurement": "sensitivity of NRG1-evoked phosphorylation re-activation to inhibitor", "setting": "[1]; MKN-45, MET inhibitor plus NRG1", "value": "specifically sensitive"},
      {"measurement": "sensitivity of NRG1-caused restoration of ERK phosphorylation to inhibitor", "setting": "[2]; RT-112", "value": "lapatinib-sensitive"},
      {"measurement": "activity on cell viability (reversal of rescue)", "setting": "RT-112 cells", "value": "not sufficient"},
      {"measurement": "activity on cell viability (reversal of rescue)", "setting": "MKN-45 cells", "value": "not sufficient"},
      {"measurement": "reversal of ligand-mediated rescue of proliferation", "setting": "MKN-45 cells; MKN-45 in presence of MET inhibitor Cpd. A or Cpd. B, FIGS. 3, 4", "value": "reversed rescue by NRG1"}
    ]},
    {"molecule": "HGF: Hepatocyte Growth Factor", "values": [
      {"measurement": "ERK phosphorylation after addition of ligand", "setting": "[2]; RT-112, in the presence of BGJ398", "value": "restored ERK phosphorylation"},
      {"measurement": "rescue of cell proliferation by recombinant ligand", "setting": "RT-112 cells; RT-112 in presence of FGFR inhibitor", "value": "reproduce the rescue effects"}
    ]},
    {"molecule": "FGF7: Fibroblast Growth Factor 7 (activator of FGFR) (protein, UniProt P21781 32-194, looked up) Fibroblast growth factor 7: CNDMTPEQMATNVNCSSPERHTRSYDYMEGGDIRVRRLFCRTQWYLRIDKRGKVKGTQEMKNNYNIMEIRTVAVGIVAIKGVESEFYLAMNKEGKLYAKKECNEDCNFKELILENHYNTYASAKWTHNGGEMFVALNQKGIPVRGKKTKKEQKTAHFLPMAIT", "values": [
      {"measurement": "AKT phosphorylation after addition of ligand", "setting": "[1]; MKN-45, MET inhibited", "value": "no or minimal effect on AKT phosphorylation"},
      {"measurement": "ERK1/2 phosphorylation after addition of ligand", "setting": "[1]; MKN-45, MET inhibited", "value": "partially re-activated ERK1/2 phosphorylation"},
      {"measurement": "FRS2 phosphorylation after addition of ligand", "setting": "[1]; MKN-45, MET inhibited", "value": "re-activated FRS2 phosphorylation"}
    ]}
  ]
}
